Active and inactive are the calls of the source. No cut-off for these calls is given here.
Tests used:
IGROV1-R10 [1] = assay: Pro-apoptotic activity in human IGROV1-R10 cells transfected with Bcl-xL siRNA assessed as increase in cleaved caspase-3 expression at 25 uM measured after 24 hrs by Western blot analysis; format: functional, cell-based
[2] = Pro-apoptotic activity in human IGROV1-R10 cells transfected with control siRNA assessed as accumulation at sub G1 phase at 25 uM incubated for 24 hrs by propidium iodide staining based flow cytometry analysis (reference value: 4.5% ); format: functional
IGROV1-R10 [3] = assay: Pro-apoptotic activity in human IGROV1-R10 cells transfected with Bcl-xL siRNA assessed as increase in cleaved PARP expression at 25 uM measured after 24 hrs by Western blot analysis; format: functional, cell-based
IGROV1-R10 [4] = assay: Pro-apoptotic activity in human IGROV1-R10 cells transfected with Bcl-xL siRNA assessed as morphological alteration at 25 uM measured after 24 hrs by DAPI staining based fluorescence microscopy analysis; format: functional, cell-based
[5] = Pro-apoptotic activity in human IGROV1-R10 cells transfected with Bcl-xL siRNA assessed as condensed nuclei at 25 uM measured after 24 hrs by DAPI staining based fluorescence microscopy analysis relative to control; format: functional
[6] = Pro-apoptotic activity in human IGROV1-R10 cells transfected with Bcl-xL siRNA assessed as accumulation at sub G1 phase at 25 uM incubated for 24 hrs by propidium iodide staining based flow cytometry analysis (reference value: 17% ); format: functional
A2780 [7] = assay: Pro-apoptotic activity in human A2780 cells assessed as increase in caspase3/7 positive cells at 25 uM measured after 24 hrs in presence of ABT-737 by DAPI staining based fluorescence microscopy analysis; format: functional, cell-based
[8] = Pro-apoptotic activity in human IGROV1-R10 cells assessed as accumulation at sub G1 phase at 15 uM incubated for 24 hrs in presence of ABT-737 by propidium iodide staining based flow cytometry analysis (reference value: 10.8% ); format: functional
[9] = Pro-apoptotic activity in human IGROV1-R10 cells assessed as accumulation at sub G1 phase at 25 uM incubated for 24 hrs by propidium iodide staining based flow cytometry analysis (reference value: 2.8% ); format: functional
SK-OV-3 [10] = assay: Pro-apoptotic activity in human SKOV3 cells assessed as increase in caspase3/7 positive cells at 25 uM measured after 24 hrs in presence of ABT-737 by DAPI staining based fluorescence microscopy analysis; format: functional, cell-based
[11] = Pro-apoptotic activity in human IGROV1-R10 cells assessed as accumulation at sub G1 phase at 25 uM incubated for 24 hrs in presence of ABT-737 by propidium iodide staining based flow cytometry analysis (reference value: 21.2% ); format: functional
[12] = Pro-apoptotic activity in human IGROV1-R10 cells assessed as accumulation at sub G1 phase at 10 uM incubated for 24 hrs by propidium iodide staining based flow cytometry analysis (reference value: 2 % ); format: functional
[13] = Pro-apoptotic activity in human IGROV1-R10 cells assessed as accumulation at sub G1 phase at 10 uM incubated for 24 hrs in presence of ABT-737 by propidium iodide staining based flow cytometry analysis (reference value: 10.8% ); format: functional
[14] = Pro-apoptotic activity in human IGROV1-R10 cells assessed as accumulation at sub G1 phase at 15 uM incubated for 24 hrs by propidium iodide staining based flow cytometry analysis (reference value: 2 % ); format: functional
[15] = biological target: Induced myeloid leukemia cell differentiation protein Mcl-1 (Homo sapiens) (UniProt Q07820); assay: Inhibition of FAM-Bim peptide binding to MCL-1 in human MCF-7 cells assessed as disruption by BRET assay; format: cell-based; settings: MCF7
IGROV1-R10 [16] = assay: Pro-apoptotic activity in human IGROV1-R10 cells transfected with Bak siRNA assessed as cleaved caspase-3 level at 15 uM incubated for 24 hrs in presence of ABT-737 by Western blot analysis; format: functional, cell-based
[17] = Pro-apoptotic activity in human IGROV1-R10 cells transfected with Bak and Bax siRNA assessed as accumulation at sub G1 phase at 15 uM incubated for 24 hrs in presence of ABT-737 by propidium iodide staining based flow cytometry analysis (reference value: 4.3% ); format: functional
[18] = Cytotoxicity against human AG1521 cells assessed as accumulation subG1 phase at 15 uM after 24 hrs by flow cytometry (reference value: 1.7%); format: cell-based; settings: ag1521, 24 h
A549 [19] = assay: Pro-apoptotic activity in human A549 cells assessed as accumulation subG1 phase at 15 uM after 24 hrs in presence of ABT-737 by flow cytometry (reference value: 3.83%); format: functional
[20] = Pro-apoptotic activity in human IGROV1-R10 cells transfected with Bcl-xL siRNA assessed as accumulation at sub G1 phase at 15 uM incubated for 8 hrs by propidium iodide staining based flow cytometry analysis relative to control; format: functional
[21] = Pro-apoptotic activity in human IGROV1-R10 cells transfected with Bcl-xL siRNA assessed as accumulation at sub G1 phase at 15 uM incubated for 6 hrs by propidium iodide staining based flow cytometry analysis relative to control; format: functional
[22] = Pro-apoptotic activity in human IGROV1-R10 cells transfected with Bak and Bax siRNA assessed as accumulation at sub G1 phase at 15 uM incubated for 24 hrs by propidium iodide staining based flow cytometry analysis (reference value: 4.3%); format: functional
[23] = Pro-apoptotic activity in human IGROV1-R10 cells transfected with Bcl-xL siRNA assessed as accumulation at sub G1 phase at 15 uM incubated for 24 hrs by propidium iodide staining based flow cytometry analysis relative to control; format: functional
IGROV1-R10 [24] = assay: Pro-apoptotic activity in human IGROV1-R10 cells assessed as cleaved caspase-3 expression at 15 uM measured after 24 hrs in presence of ABT-737 by Western blot analysis; format: functional, cell-based
[25] = Pro-apoptotic activity in human IGROV1-R10 cells transfected with Bax siRNA assessed as accumulation at sub G1 phase at 15 uM incubated for 24 hrs by propidium iodide staining based flow cytometry analysis (reference value: 3.2% ); format: functional
[26] = Cytotoxicity against human IGROV1-R10 cells transfected with siMCL1 at 15 uM after 24 hrs by fluorescence microscopic analysis; format: cell-based; settings: igrov1-r10, 24 h
IGROV1-R10 [27] = assay: Pro-apoptotic activity in human IGROV1-R10 cells transfected with Bcl-xL siRNA assessed as cleaved caspase-3 expression at 15 uM incubated for 8 hrs by Western blot analysis; format: functional, cell-based
IGROV1-R10 [28] = assay: Pro-apoptotic activity in human IGROV1-R10 cells assessed as cleaved PARP expression at 15 uM measured after 24 hrs in presence of ABT-737 by Western blot analysis; format: functional, cell-based
A2780 [29] = assay: Pro-apoptotic activity in human A2780 cells assessed as increase in caspase3/7 positive cells at 15 uM measured after 24 hrs in presence of ABT-737 by DAPI staining based fluorescence microscopy analysis; format: functional, cell-based
[30] = Pro-apoptotic activity in human IGROV1-R10 cells transfected with Bak siRNA assessed as accumulation at sub G1 phase at 15 uM incubated for 24 hrs in presence of ABT-737 by propidium iodide staining based flow cytometry analysis (reference value: 3.4% ); format: functional
[31] = Pro-apoptotic activity in human IGROV1-R10 cells transfected with Bcl-xL siRNA assessed as accumulation at sub G1 phase at 15 uM incubated for 12 hrs by propidium iodide staining based flow cytometry analysis relative to control; format: functional
IGROV1-R10 [32] = assay: Pro-apoptotic activity in human IGROV1-R10 cells transfected with Bak siRNA assessed as condensed nuclei at 15 uM incubated for 24 hrs in presence of ABT-737 by DAPI staining based fluorescence microscopic analysis; format: functional, cell-based
[33] = Pro-apoptotic activity in human IGROV1-R10 cells transfected with Bcl-xL siRNA assessed as accumulation at sub G1 phase at 15 uM incubated for 4 hrs by propidium iodide staining based flow cytometry analysis relative to control; format: functional
IGROV1-R10 [34] = assay: Pro-apoptotic activity in human IGROV1-R10 cells transfected with Bcl-xL siRNA assessed as cleaved PARP expression at 15 uM incubated for 8 hrs by Western blot analysis; format: functional, cell-based
[35] = Pro-apoptotic activity in human IGROV1-R10 cells transfected with Bax siRNA assessed as accumulation at sub G1 phase at 15 uM incubated for 24 hrs in presence of ABT-737 by propidium iodide staining based flow cytometry analysis (reference value: 3.2% ); format: functional
[36] = Cytotoxicity against human AG1521 cells assessed as accumulation subG1 phase at 15 uM after 24 hrs in presence of ABT-737 by flow cytometry (reference value: 1.64%); format: cell-based; settings: ag1521, 24 h
[37] = Pro-apoptotic activity in human IGROV1-R10 cells transfected with Bak siRNA assessed as accumulation at sub G1 phase at 15 uM incubated for 24 hrs by propidium iodide staining based flow cytometry analysis (reference value: 3.4%); format: functional
IGROV1-R10 [38] = assay: Induction of apoptosis in human IGROV1-R10 cells assessed as up regulation of NOXA by Western blot analysis; format: functional, cell-based
IGROV1-R10 [39] = assay: Pro-apoptotic activity in human IGROV1-R10 cells transfected with Bak siRNA assessed as cleaved PARP level at 15 uM incubated for 24 hrs in presence of ABT-737 by Western blot analysis; format: functional, cell-based
SK-OV-3 [40] = assay: Pro-apoptotic activity in human SKOV3 cells assessed as increase in caspase3/7 positive cells at 15 uM measured after 24 hrs in presence of ABT-737 by DAPI staining based fluorescence microscopy analysis; format: functional, cell-based
A549 [41] = assay: Pro-apoptotic activity in human A549 cells assessed as accumulation subG1 phase at 15 uM after 24 hrs by flow cytometry (reference value: 2.5%); format: functional

Induced myeloid leukemia cell differentiation protein Mcl-1 (Homo sapiens), sequence (Q07820 whole entry): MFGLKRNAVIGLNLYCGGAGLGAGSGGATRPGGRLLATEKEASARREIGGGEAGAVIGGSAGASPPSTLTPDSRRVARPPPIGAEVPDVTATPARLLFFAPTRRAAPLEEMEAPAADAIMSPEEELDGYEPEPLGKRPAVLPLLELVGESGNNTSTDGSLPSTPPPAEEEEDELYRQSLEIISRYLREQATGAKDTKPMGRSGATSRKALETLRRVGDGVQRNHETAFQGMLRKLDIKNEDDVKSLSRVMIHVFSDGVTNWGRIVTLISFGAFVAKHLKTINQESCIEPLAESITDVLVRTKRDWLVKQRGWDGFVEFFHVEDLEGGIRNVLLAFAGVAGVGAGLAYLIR

Cc1cc(-c2ncc(-c3cccc(C/C(N)=N/O)c3)cc2/C=C/c2ccccc2)cnc1-c1cccnc1
Activity (IGROV1-R10 [1]): Active
Activity [2]: 4.8%
Activity (IGROV1-R10 [3]): Active
Activity (IGROV1-R10 [4]): inactive
Activity [5]: 28%
Activity [6]: 45.3%

Cc1cc(-c2ncc(-c3cccnc3)cc2/C=C/c2ccccc2)cnc1-c1cccc(O)c1
Activity (IGROV1-R10 [1]): Active
Activity [2]: 12.5%
Activity (IGROV1-R10 [3]): Active
Activity (IGROV1-R10 [4]): inactive
Activity [5]: 35.9%
Activity [6]: 52.2%

Cc1cc(-c2ncc(-c3cccnc3)cc2/C=C/c2ccccc2)cnc1-c1cccnc1
Activity (A2780 [7]): Active
Activity [8]: 36.1%
Activity (IGROV1-R10 [1]): Active
Activity (IGROV1-R10 [3]): Active
Activity [9]: 6.46%
Activity (IGROV1-R10 [4]): inactive
Activity (SK-OV-3 [10]): Active
Activity [11]: 70.99%
Activity [5]: 63.4%
Activity [6]: 62.76%
Activity [12]: 2.5%
Activity [13]: 22.5%
Activity [14]: 4.9%

Cc1cc(-c2ncc(-c3cccnc3)cc2/C=C/c2ccccc2)cnc1-c1cccc(CC(=O)O)c1
Activity (IGROV1-R10 [1]): inactive
Activity [2]: 6%
Activity (IGROV1-R10 [3]): Active
Activity (IGROV1-R10 [4]): inactive
inhibition [15]: inactive
Activity [5]: 7.8%
Activity [6]: 14.5%

Cc1cc(-c2ncc(-c3cccc(CC#N)c3)cc2/C=C/c2ccccc2)cnc1-c1cccnc1
Activity (IGROV1-R10 [1]): Active
Activity [2]: 53%
Activity (IGROV1-R10 [3]): Active
Activity (IGROV1-R10 [4]): inactive
Activity [5]: 25.3%
Activity [6]: 36.9%

Cc1cc(-c2ncc(-c3cccc(CC(=O)O)c3)cc2/C=C/c2ccccc2)cnc1-c1cccnc1
Activity (IGROV1-R10 [1]): Active
Activity [2]: 4.6%
Activity (IGROV1-R10 [3]): Active
Activity (IGROV1-R10 [4]): inactive
Activity [5]: 31.7%
Activity [6]: 46.8%

Cc1cc(-c2ncc(-c3cccnc3)cc2/C=C/c2ccccc2)cnc1-c1cccc(CC#N)c1
Activity (IGROV1-R10 [1]): Active
Activity [2]: 6.5%
Activity (IGROV1-R10 [3]): Active
Activity (IGROV1-R10 [4]): inactive
Activity [5]: 35.1%
Activity [6]: 43%

Cc1cc(-c2ncc(-c3cccc(O)c3)cc2/C=C/c2ccccc2)cnc1-c1cccnc1
Activity (IGROV1-R10 [1]): Active
Activity [2]: 5.5%
Activity (IGROV1-R10 [3]): Active
Activity (IGROV1-R10 [4]): inactive
Activity [5]: 19.9%
Activity [6]: 37.5%

Cc1cc(-c2ncc(-c3cccnc3)cc2/C=C/c2ccccc2)cnc1-c1cccc(C/C(N)=N/O)c1
Activity (IGROV1-R10 [16]): inactive
Activity [8]: 57.43%
Activity [17]: 27.9%
Activity (IGROV1-R10 [1]): Active
Activity [18]: 1.98%
Activity (A549 [19]): 68.86%
Activity [2]: 47.8%
Activity [20]: 35.2%
Activity (IGROV1-R10 [3]): Active
Activity [21]: 19.3%
Activity [9]: 40.69%
Activity (IGROV1-R10 [4]): Active
Activity [22]: 6%
inhibition [15]: Active
Activity [23]: 64.8%
Activity (IGROV1-R10 [24]): Active
Activity [25]: 7%
Activity [26]: Non-Toxic
Activity [11]: 55.75%
Activity (IGROV1-R10 [27]): Active
Activity (IGROV1-R10 [28]): Active
Activity (A2780 [29]): Active
Activity [30]: 41%
Activity [31]: 52.2%
Activity (IGROV1-R10 [32]): inactive
Activity [33]: 14.1%
Activity [5]: 91.3%
Activity (IGROV1-R10 [34]): Active
Activity [35]: 56.7%
Activity [6]: 59%
Activity [36]: 3.33%
Activity [37]: 6.8%
Activity [12]: 2.2%
Activity (IGROV1-R10 [38]): Active
Activity (IGROV1-R10 [39]): inactive
Activity [13]: 34.3%
Activity [14]: 2.8%
Activity (SK-OV-3 [40]): Active
Activity (A549 [41]): 12.93%

Reference: ChEMBL document CHEMBL4715827, “Structure-guided design of pyridoclax derivatives based on Noxa / Mcl-1 interaction mode” (Eur J Med Chem, 2018)
